This is an account of results in patent US11666658B2, “Rifamycin analogs and antibody-drug conjugates thereof” (Regeneron Pharmaceuticals, Inc., priority 2018, dated 2023).

Assay [1] concerns S. aureus MSRA strain NRS384. Briefly: S. aureus IV disseminated infection mouse model (4 day model, Balb/c mice), kidney burden. It counts as in vivo. The settings on record: 4 day infection model, mAb or conjugate 1 mg/kg, with vancomycin treatment, limit of detection 250 cfu. The protocol: S. aureus MSRA strain NRS384 was grown overnight in Tryptic soy broth (TSB) and sub-cultured to mid-logarithmic phase. Bacteria were then washed twice with PBS and resuspended in PBS at a concentration of 1.5×10^8 cfu/mL. […] Mice were monitored for weight loss and body conditioning score throughout the infection. […] For quantification, the kidneys were homogenized followed by enumeration of colony forming units through serial dilution in PBS and plating onto trypticase soy agar plates.

Assay [2] concerns S. aureus MSRA strain NRS384. Briefly: S. aureus IV advanced disseminated infection mouse model (8 day model, Balb/c mice), kidney burden. It counts as in vivo. Here is the method: To test the efficacy of anti-S. aureus Ab-antibiotic ncADCs of the disclosure in combination therapy with standard of care vancomycin in vivo, two different 8 day intravenous disseminated infection models was performed. […] S. aureus MSRA strain NRS384 was grown overnight in Tryptic soy broth (TSB) and sub-cultured to mid-logarithmic phase. Bacteria were then washed twice with PBS and resuspended in PBS at a concentration of 1.5×10^8 cfu/mL. Balb/c mice were then infected intravenously through the tail vein with 100 uL of the bacterial suspension, for a final infectious dose of […]. In the first study, mice were treated either vancomycin alone, an isotype control antibody plus vancomycin, an isotype control Ab-ncADC (Isotype control-36) plus vancomycin, an anti-WTA antibody plus vancomycin, an anti-WTA Ab-Antibiotic ncADC (anti-WTA Ab-Antibiotic ncADC-36), or a different anti-WTA Ab-Antibiotic ncADC (anti-WTA Ab-Antibiotic ncADC-25) plus vancomycin. Mice were also treated either vancomycin alone, an isotype control antibody plus vancomycin, an isotype control Ab-Antibiotic ncADC (Isotype control Ab-Antibiotic ncADC-36) plus vancomycin, an anti-Protein A antibody plus vancomycin, or an anti-Protein A Ab-Antibiotic ncADC (anti-Protein A Ab-Antibiotic ncADC-36).
In the second study, mice were treated either vancomycin alone, an isotype control antibody plus vancomycin, an isotype control Ab-Antibiotic ncADC (Isotype control Ab-Antibiotic ncADC-36) plus vancomycin, a second isotype control Ab-Antibiotic ncADC (Isotype control Ab-Antibiotic ncADC-25) plus vancomycin, a third isotype control Ab-Antibiotic ncADC (Isotype control Ab-Antibiotic ncADC-21) plus vancomycin, an anti-WTA antibody plus vancomycin, an anti-WTA Ab-Antibiotic ncADC (anti-WTA Ab-Antibiotic ncADC-36), a second anti-WTA Ab-Antibiotic ncADC (anti-WTA Ab-Antibiotic ncADC-25) plus vancomycin, or a third anti-WTA Ab-Antibiotic ncADC (anti-WTA Ab-Antibiotic ncADC-21) plus vancomycin. In all studies, for treatment groups that included vancomycin, it was dosed from three to seven days post infection at 110 mg/kg subcutaneously twice daily. For treatment groups that included antibodies and ncADCs, they were administered four days after infection subcutaneously at 2 mg/kg for the first study or 5 mg/kg for the second study. A no treatment infected control and an uninfected control were included in each of the studies. Mice were monitored for weight loss and body conditioning score throughout the infection. At eight days post infection, mice were euthanized, and the S. aureus kidney burden was quantified. For quantification, the kidneys were homogenized followed by enumeration of colony forming units through serial dilution in PBS and plating onto trypticase soy agar plates. Data points represent the kidney burden from individual mice tested.

Consider `CN[C@H](CC(C)C)C(=O)N[C@H]1C(=O)N[C@@H](CC(N)=O)C(=O)N[C@H]2C(=O)N[C@H]3C(=O)N[C@H](C(=O)N[C@H](C(=O)O)c4cc(O)cc(O)c4-c4cc3ccc4O)[C@H](O)c3ccc(c(Cl)c3)Oc3cc2cc(c3O[C@@H]2O[C@H](CO)[C@@H](O)[C@H](O)[C@H]2O[C@H]2C[C@](C)(N)[C@H](O)[C@H](C)O2)Oc2ccc(cc2Cl)[C@H]1O` [vancomycin], for which the Median cfu/kidney pair in assay [1] was determined as 4.38E+05 cfu/kidney pair; in assay [2] (Balb/c mice, 8 day model, first study (Table 37, anti-Protein A), mAb or conjugate 2 mg/kg, with vancomycin treatment) it was 7.25E+06 cfu/kidney pair; in assay [2] (Balb/c mice, 8 day model, second study (Table 38), mAb or conjugate 5 mg/kg, with vancomycin treatment) it was 1.88E+06 cfu/kidney pair; in assay [2] (in vivo), 7.25E+06 cfu/kidney pair. Moreover, the “reduction of S. aureus kidney burden” value in assay [2] (first study, vancomycin alone 110 mg/kg subcutaneously twice daily day 3 to 7, kidneys at day 8) is listed as 1-2 logs. Also, the “reduction of S. aureus kidney bacterial burden” value in assay [2] (second study, vancomycin alone) is 1-2 logs.
